Assay results as given in publication PMC3419607, “Effect of Alpinia zerumbet components on antioxidant and skin diseases-related enzymes” (BMC Complementary and Alternative Medicine, 2012).
In brackets after ≈: the same amount, converted by molar mass.

How the values were obtained:
[1] = DPPH radical scavenging activity assay; conditions: 30 min, 517 nm
Protocol: The free radical scavenging activity was evaluated as described previously. Five hundred microlilters of the different concentration of test samples were mixed with 200 μl of 0.5 mM DPPH methanol solution and 500 μl of 0.1 M sodium acetate buffer (pH 5.5). After shaking, the mixture was incubated in the dark at room temperature for 30 min, and then the absorbance was measured at 517 nm. BHT was used as a positive control, while water and methanol were used as controls for calculation.
(§1) The ability of the extracts to scavenge DPPH, ABTS^·+, PMS-NADH radicals were calculated by following formula:
(§2) Radical scavenging (%) = [(O.Dcontrol – O.Dsample)/ O.Dcontrol] x 100,
(§3) where O.D is the optical density in the presence or absence of the samples.

[2] = Total antioxidant activity (ABTS) assay; conditions: ABTS radical scavenging, 6 min, 734 nm
Protocol: The total antioxidant activity of test sample was measured with modified method as described previously. ABTS^·+ solution was generated by mixing 7 mM ABTS and 2.45 mM potassium persulfate (K2S2O8) in water, which was placed in the dark at room temperature for 16 h to give the complete oxidation of ABTS. Before using, the ABTS^·+ solution was diluted with water to get an absorbance of 0.700 ± 0.050 at 734 nm. Briefly, 1 ml of ABTS^·+ solution was added to 30 μl of test samples and mixed thoroughly. BHT was used as positive control and the sample solutions were used as controls. The reactive mixture was incubated at room temperature for 6 min and the absorbance was immediately recorded at 734 nm.
as §1, §2, §3

[3] = PMS-NADH system superoxide-radical scavenging assay; conditions: 560 nm
Protocol: The superoxide scavenging activity was assayed following the method of Lau et al. with minor modifications. The reaction mixture contained 0.5 ml of 105 μM NADH, 0.5 ml of 66 μM NBT dissolved in 0.1 M phosphate buffer (pH 7.4) and 0.1 ml sample in different concentrations. The reaction was initiated by adding 0.5 ml of 30 μM PMS into the reaction mixture. Methanol and water were used as a control and BHT as a positive control. After 10 min, the reaction mixture reached to stable color, measurement of absorbance was conducted at 560 nm.
as §1, §2, §3

[4] = molecular target: Collagenase from Clostridium histolyticum (ChC); assay: Collagenase inhibition assay (FALGPA substrate); format: biochemical; conditions: plant parts: aqueous extract
Protocol: Collagenase inhibition assay was performed by the method described previously which based on the hydrolysis of N-[3-(2-furyl)acryloyl]-Leu-Gly-Pro-Ala (FALGPA) by collagenase to produce FA-Leu and Gly-Pro-Ala. The assay was performed in 50 mM Tricine buffer (400 mM NaCl and 10 mM CaCl2, pH 7.5). Collagenase from Clostridium histolyticum (ChC) was dissolved in the buffer for use at an initial concentration of 0.8 units/ ml. The synthetic substrate, FALGPA, was dissolved in the Tricine buffer to 2 mM. Sample extracts were incubated with the enzyme in the buffer for 15 min before adding substrate to start reaction. The final reaction mixture (150 μl total volume) contained Tricine buffer, 0.8 mM of FALGPA, 0.1 units of ChC and 25 μg of test extracts. Controls were performed with water and methanol, while oleanolic acid as a positive control. After adding substrate for 20 min, collagenase activity was measured at 340 nm.
The percentage inhibition for collagenase, elastase and hyaluronidase assays were calculated by:
Enzyme inhibition activity (%) = (1– B/A) x 100, where A is the enzyme activity without sample and B is the activity in presence of the sample.

[5] = molecular target: T1, elastase from porcine pancreas (Sus scrofa, UniProt P00772); assay: Elastase inhibition assay (SANA substrate); format: biochemical; conditions: plant parts: aqueous extract
T1 construct: from tissue; host or cells: porcine pancreas
From the text: The inhibitory activity determined the intensity of color released during cleavage of SANA by the action of elastase.

[6] = molecular target: T2, hyaluronidase from bovine test (Bos taurus, UniProt Q2YDK3); assay: Hyaluronidase inhibition assay; format: biochemical; conditions: plant parts: aqueous extract
T2 construct: from tissue; host or cells: bovine testes (printed 'bovine test')
T2 sequence (Q2YDK3 36-553): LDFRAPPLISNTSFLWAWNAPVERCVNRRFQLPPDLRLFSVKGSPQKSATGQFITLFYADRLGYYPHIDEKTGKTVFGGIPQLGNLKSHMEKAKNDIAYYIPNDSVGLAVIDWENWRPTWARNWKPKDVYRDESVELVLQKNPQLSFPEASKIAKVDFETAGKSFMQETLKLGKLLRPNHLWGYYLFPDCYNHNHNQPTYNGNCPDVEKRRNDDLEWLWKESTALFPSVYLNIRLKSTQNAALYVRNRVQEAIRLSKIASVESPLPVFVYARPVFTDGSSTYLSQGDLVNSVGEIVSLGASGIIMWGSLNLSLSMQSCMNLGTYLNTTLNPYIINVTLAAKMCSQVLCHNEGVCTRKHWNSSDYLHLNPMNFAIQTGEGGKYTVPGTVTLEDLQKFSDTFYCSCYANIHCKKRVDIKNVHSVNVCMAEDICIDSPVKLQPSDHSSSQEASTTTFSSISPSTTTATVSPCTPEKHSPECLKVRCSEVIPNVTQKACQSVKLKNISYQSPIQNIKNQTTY

T1 sequence (P00772 27-266): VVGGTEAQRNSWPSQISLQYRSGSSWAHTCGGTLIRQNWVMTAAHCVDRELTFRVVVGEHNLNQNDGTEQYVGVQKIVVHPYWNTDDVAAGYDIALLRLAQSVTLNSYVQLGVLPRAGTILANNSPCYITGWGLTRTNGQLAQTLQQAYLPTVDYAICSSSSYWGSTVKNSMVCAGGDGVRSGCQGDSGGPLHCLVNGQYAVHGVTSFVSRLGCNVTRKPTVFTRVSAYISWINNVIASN

| SMILES | Inhibitory effect (IC50) DPPH [1] | Inhibitory effect (IC50) ABTS [2] | Inhibitory effect (IC50) PMS-NADH [3] | IC50 collagenase inhibition [4] | IC50 [5] | IC50 [6] |
| --- | --- | --- | --- | --- | --- | --- |
| Cc1cc(C(C)(C)C)c(O)c(C(C)(C)C)c1 [BHT, tert-butyl hydroxytoluene, reference compound] | 11.74 ± 0.15 a ^1 μg/mL | 14.26 ± 0.16 a μg/mL | 24.80 ± 0.98 a μg/mL |  |  |  |
| COc1cc(/C=C/c2ccccc2)oc(=O)c1 [DK, 5,6-dehydrokawain] | 122.14 ± 1.40 µg/mL | 110.08 ± 3.34 µg/mL | 127.78 ± 4.75 µg/mL | 24.93 ± 0.97 µg/mL (≈ 109 µM) | 85 µM | 85.3 µM |
| CC1(C)CC[C@]2(C(=O)O)CC[C@]3(C)C(=CC[C@@H]4[C@@]5(C)CC[C@H](O)C(C)(C)[C@@H]5CC[C@]43C)[C@@H]2C1 [oleanolic acid, reference compound] |  |  |  | 17.95 ± 0.23 µg/mL (≈ 39.3 µM) |  |  |
